Patent publication US20240018140A1, “MODIFIED IMIDAZOPYRIDINES AS GLUCOSYLCERAMIDE SYNTHASE INHIBITORS” (Merck Sharp & Dohme LLC, priority 2020, published 2024)

The compounds below were run against glucosylceramide synthase (GCS) (Homo sapiens (Human), UniProt Q16739) (assay: UDP-Glo glucosylceramide synthase biochemical assay). Details: endogenous GCS in Golgi preparations from human A375 malignant melanoma skin cells; C6 ceramide and UDP-glucose substrates; 20 h incubation; UDP detected by luminescence.
Sequence of glucosylceramide synthase (GCS) (Q16739 whole entry): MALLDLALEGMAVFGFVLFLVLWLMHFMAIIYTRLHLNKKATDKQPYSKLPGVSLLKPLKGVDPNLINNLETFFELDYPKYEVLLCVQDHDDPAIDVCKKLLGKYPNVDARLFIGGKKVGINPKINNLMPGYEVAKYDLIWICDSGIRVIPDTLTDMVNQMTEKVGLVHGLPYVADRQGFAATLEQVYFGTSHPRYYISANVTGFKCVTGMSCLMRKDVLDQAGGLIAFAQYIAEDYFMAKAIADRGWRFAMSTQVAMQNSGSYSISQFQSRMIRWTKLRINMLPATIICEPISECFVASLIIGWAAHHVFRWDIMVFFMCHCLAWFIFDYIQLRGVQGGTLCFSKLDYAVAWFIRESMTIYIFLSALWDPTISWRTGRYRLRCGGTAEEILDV
From the text: UDP-Glo™ Glucosylceramide Synthase Biochemical Assay
A UDP-Glo™ glucosylceramide synthase biochemical assay was utilized to evaluate the effect of test compounds on the activity of endogenous levels of GCS enzyme contained within Golgi preparations isolated from human A375 malignant melanoma skin cells. The UDP-Glo™ glucosylceramide synthase assay uses UDP-Glucose as a nucleotide-glycosyl donor and ceramide as substrate acceptor molecules. In the reaction, glucosylceramide synthase (GCS) transfers glucose from UDP-Glucose to ceramide. Glucosylceramide and UDP are released as products.
Using Promega's UDP-Glo™ Glycosyltransferase assay kit (Promega Corporation, Madison, WI, USA (Promega)), GCS activity was indirectly measured by detecting the amount of UDP produced. An aliquot of GCS enzyme (1.5 μg crude golgi preparation, total protein) and titrated test compound were aliquoted to each well and incubated for 30 minutes at room temperature. […] An equivalent volume of substrate mixture was then added to each well. Following a 20 h incubation at room temperature to allow for GCS turnover of substrate, an equal volume of UDP detection reagent (Promega) was added to each well and incubated for an additional 75 minutes at room temperature to simultaneously convert the accumulated UDP product into ATP and generate light in a luciferase reaction. The generated light was detected using a luminometer. […] luminescence values (RLUs) were normalized to mean “min” and “max” effects, as determined on each plate. “Min” was defined as the mean of the values of the wells treated with vehicle (DMSO) and which represent 0% inhibition; “max” was defined as the mean of the values of the wells treated with a reference inhibitor and which represent the 100% effect. Values for % Emax and EC50 were determined by best-fitting the normalized data to a curve in Activity Base along a four-parameter logistic nonlinear regression (4PL) model (based on the Levenberg-Marquardt algorithm and defined by the equation below): […]
where: n is 4PMin (bottom of the curve); m is 4PMax (top of the curve); i is IP (inflection point of curve); and p is slope. See Levenberg, K., “A Method for the Solution of Certain Problems in Least Squares”, Quart. Appl. Math. 2, (1944), pp 164-168 and Marquardt, D., “An Algorithm for Least Squares Estimation on Nonlinear Parameters”, SIAM J. Appl. Math. 11, (1963) pp 431-441.
An EC50 of 1.7 nM was found for `CC(C)(NC(=O)c1cn2cc(F)cc(-c3ccccc3OCC(F)(F)F)c2n1)C(F)(F)F` [Compound 41, 6-fluoro-N-(1,1,1-trifluoro-2-methylpropan-2-yl)-8-(2-(2,2,2-trifluoroethoxy)phenyl)imidazo[1,2-a]pyridine-2-carboxamide] in this work.
An EC50 of 30 nM was found for `O=C(c1cn2cc(Cl)cc(-c3ccccc3OCC(F)(F)F)c2n1)N1C[C@H]2C(CO)[C@@H]2C1` (stereo partly drawn) [Compound 60, (6-chloro-8-(2-(2,2,2-trifluoroethoxy)phenyl)imidazo[1,2-a]pyridin-2-yl)((1R,5R)-6-(hydroxymethyl)-3-azabicyclo[3.1.0]hexan-3-yl)methanone] in this work.
An EC50 of 2.3 nM was found for `CC(CO)(NC(=O)c1cn2cccc(-c3ccccc3OCC(F)(F)F)c2n1)C(F)(F)F` (single isomer, unassigned) [Compound 9, (R or S)-N-(1,1,1-trifluoro-3-hydroxy-2-methylpropan-2-yl)-8-(2-(2,2,2-trifluoroethoxy)phenyl)imidazo[1,2-a]pyridine-2-carboxamide] in this work.
An EC50 of 0.23 nM was found for `O=C(N[C@@H]1CCC[C@H](CO)C1)c1cn2cccc(-c3ccccc3OCC(F)(F)F)c2n1` (relative stereo) [Compound 31, N-(cis-3-(hydroxymethyl)cyclohexyl)-8-(2-(2,2,2-trifluoroethoxy)phenyl)imidazo[1,2-a]pyridine-2-carboxamide] in this work.
An EC50 of 2.1 nM was found for `O=C(N[C@H]1CC[C@H](CO)CC1)c1cn2cccc(-c3ccccc3OCC(F)(F)F)c2n1` [Compound 29, N-(trans-4-(hydroxymethyl)cyclohexyl)-8-(2-(2,2,2-trifluoroethoxy)phenyl)imidazo[1,2-a]pyridine-2-carboxamide] in this work.
An EC50 of 3 nM was found for `O=C(Nc1ccc2cccc(-c3ccccc3OCC(F)(F)F)c2n1)[C@H]1C[C@H](O)C1` [Compound 82, trans-3-hydroxy-N-(8-(2-(2,2,2-trifluoroethoxy)phenyl)quinolin-2-yl)cyclobutane-1-carboxamide] in this work.
An EC50 of 26 nM was found for `C[C@@H](NC(=O)c1cn2cccc(-c3ccccc3OCC(F)(F)F)c2n1)C(F)(F)F` [Compound 4, (R)-8-(2-(2,2,2-trifluoroethoxy)phenyl)-N-(1,1,1-trifluoropropan-2-yl)imidazo[1,2-a]pyridine-2-carboxamide] in this work.
An EC50 of 13 nM was found for `CC(C)(O)C1CN=C(c2cn3cc(Cl)cc(-c4ccccc4OCC(F)(F)F)c3n2)O1` (stereo not shown) [Compound 76, 2-[2-[6-chloro-8-[2-(2,2,2-trifluoroethoxy)phenyl]imidazo[1,2-a]pyridin-2-yl]-4,5-dihydrooxazol-5-yl]propan-2-ol] in this work.
An EC50 of 0.45 nM was found for `O=C(Nc1cnccc1F)c1cn2cccc(-c3ccccc3OCC(F)(F)F)c2n1` [Compound 57, N-(4-fluoropyridin-3-yl)-8-(2-(2,2,2-trifluoroethoxy)phenyl)imidazo[1,2-a]pyridine-2-carboxamide] in this work.
An EC50 of 5.9 nM was found for `N#C[C@@]1(NC(=O)c2cn3cccc(-c4ccccc4OCC(F)(F)F)c3n2)CCOC1` [Compound 34, (S)-N-(3-cyanotetrahydrofuran-3-yl)-8-(2-(2,2,2-trifluoroethoxy)phenyl)imidazo[1,2-a]pyridine-2-carboxamide] in this work.
An EC50 of 23 nM was found for `O=C(N[C@H]1CC[C@H](O)C1)c1cn2cccc(-c3ccccc3OCC(F)(F)F)c2n1` (relative stereo) [Compound 19, N-(trans-3-hydroxycyclopentyl)-8-(2-(2,2,2-trifluoroethoxy)phenyl)imidazo[1,2-a]pyridine-2-carboxamide] in this work.
An EC50 of 36 nM was found for `O=C(c1cn2cccc(-c3ccccc3OCC(F)(F)F)c2n1)N1Cc2cccnc2C1` [Compound 12, (5,7-dihydro-6H-pyrrolo[3,4-b]pyridin-6-yl)(8-(2-(2,2,2-trifluoroethoxy)phenyl)imidazo[1,2-a]pyridin-2-yl)methanone] in this work.
An EC50 of 0.061 nM was found for `CN1CC2(CN=C(c3cn4cc(Cl)cc(-c5ccccc5OCC(F)(F)F)c4n3)O2)C1` [Compound 70, 6-[6-chloro-8-[2-(2,2,2-trifluoroethoxy)phenyl]imidazo[1,2-a]pyridin-2-yl]-2-methyl-5-oxa-2,7-diazaspiro[3.4]oct-6-ene] in this work.
